In series [1] the test system is GES-1 cells. Nature of the series: apoptosis assay, Annexin-V FITC/PI flow cytometry. The class given is cell-based, human. To be noted: 24 h. The protocol:
(§1) The Caco-2 cell line and GES-1 cell line were obtained from iCell Bioscience (Shanghai, China). As described by Chai et al. ([40]) with a bit modification, the Caco-2 cells were cultured within a medium composed of DMEM supplemented with 1% (v/v) NEAA, 10% (v/v) FBS, and penicillin and streptomycin (100 U/mL). GES-1 cells were cultivated according to Xu et al. ([41]) with slight modifications as follows: DMEM medium including 1% (v/v) NEAA, 10% (v/v) FBS, and penicillin and streptomycin (100 U/mL). Cells were all maintained in a humidified incubator containing 5% CO2 and 95% air at 37°C.
(§2) Cell apoptosis assay was conducted in refer to Abas et al. ([42]) with modifications. In short, cells at a density of 1 × 10^4 cells/well were seeded in 96-well plates and incubated overnight, followed by exposure to different concentrations of ACR and RAC for another 24 h. After that, cells were rinsed twice with PBS, resuspended in 200 μL of Annexin-binding buffer, and finally stained with Annexin-V FITC and PI (5 μL each) for 10 min at 37°C in darkness. After adding 400 μL of Annexin-binding buffer, the signal intensity was measured using a FACSCalibur (Becton Dickinson, CA, USA) flow cytometry within 1 h, and data was analyzed with FlowJo software (Ashland, OR, USA).
(Flow cytometry measures light scatter and fluorescence of single cells or particles in a stream.)

Series [2] deals with Caco-2 cells. Description: apoptosis assay, Annexin-V FITC/PI flow cytometry. The following applies: for apoptotic cells / number of viable cells: 24 h. The class given is cell-based, human. As to the method:
as §1, §2

Series [3] deals with GES-1 cells. Description: JC-1 staining, mitochondrial membrane potential (MMP). The following applies: 24 h. It counts as cell-based, human. As to the method:
as §1
(§3) After incubation with different concentrations of samples, the changes of MMP in Caco-2 and GES-1 cells were measured in accordance with Liu et al., with slight modifications ([43]). In brief, cells (1 × 10^4 cells/well) were exposed to different concentrations of ACR and RAC for 24 h, respectively. Then 500 μL of JC-1 staining solution was added into each well and the plate was further incubated at 37°C for 15 min. Cells were then rinsed twice with 1 mL of staining buffer and resuspended with 500 μL of staining buffer prior to MMP determination in the flow cytometry.

Series [4] relates to Caco-2 cells. The description is as above. It counts as cell-based, human. To be noted: 24 h. The protocol:
as §1, §3

The subject of series [5] is GES-1 cells. Nature of the series: cell survival, CCK-8 assay. It counts as cell-based, human. The following applies: for cell viability (viable cell number): incubation 24 h. The protocol: as §1
(§4) The effects of ACR and RAC on cell survival (both Caco-2 and GES-1 cells) were measured by the CCK-8 assay ([41]). Briefly, cells (1 × 10^4 cells/well) were seeded into a 96-well plate and cultivated overnight. […] After cells were rinsed twice with PBS and resuspended in 100 μL of DMEM supplemented with 10% FBS, 10 μL of CCK-8 solution was added into each well and the plate was maintained for 1 h in the incubator. The plate was read at 450 nm on a microplate reader (BioTek, Epoch 2, USA), and all experiments were performed thrice. Cell viability was expressed as a percentage of the control group as shown below:
(§5) Cell viability (%) = A sample/A control × 100%
(§6) Where A sample was the absorbance (Abs) of the cells incubated with different concentrations of sample solutions, and A control was the Abs of the cells incubated without sample solution.
A general note: Formazan colour is commonly taken as a measure of viable cells.

Series [6] concerns Caco-2 cells. Nature of the series: cell survival, CCK-8 assay. It counts as cell-based, human. To be noted: for cell viability (viable cell number): incubation 24 h. As to the method: as §1, §4, §5, §6
Series [7] is described as follows: elimination of ACR by rutin in PBS (DNPH derivatization, HPLC). The following applies: for amount of ACR reduced compared with the initial content / content of ACR (residual) / content of residual ACR: 2 h; for content of ACR (residual): rutin/ACR 1/1, initial content 200 μmol. The protocol:
In the present study, three variables were taken into consideration, namely temperature (40–100°C), reaction duration (0.5–8 h), and molar ratio of rutin to ACR (from 1/2 to 4/1), and the remaining level of ACR was determined. A mixture of rutin, ACR, and 20 mL of PBS was prepared in a 50 mL three-necked flask and reacted under light-proof conditions. The different variables were studied separately while keeping other conditions constant as follows: temperature of 80°C, reaction time of 2 h, and the molar ratio of rutin/ACR of 1/1. At the end of each reaction, ACR was derivatized with DNPH, and its content was determined as below.
The stock solution equivalent to ACR concentration of […] was prepared by dissolving 10.7 mg of ACR-DNPH standard with 25 mL of acetonitrile (ACN). And the ACR-DNPH standard curve (2 to 100 μg/mL) was established by serial dilutions of the stock solution. The HPLC conditions were as below. An Agilent 1,260 Infinity II HPLC system (Agilent Technologies, Palo Alto, CA) equipped with a DAD and a Zorbax SB-C18 column (250 × 4.6 mm; 5 μm; Agilent Technologies) was utilized for the determination of ACR-DNPH. The separation was conducted under isocratic conditions by introducing 50% A (water) and 50% B (ACN) at a flow rate of 1.0 mL/min for 15 min. The temperature was 35°C, the injection volume was 20 μL, and the detection wavelength was set at 365 nm. According to the retention time as well as the peak area, the standard curve of ACR-DNPH derivates was obtained.
DNPH was recrystallized as the followings before use: excess DNPH was added into 200 mL of methanol (MeOH) heating for 1 h, and the supernatant was collected and further heated at 60°C to remove 95% of the solvent; the crystals were then washed twice with 100 mL of MeOH, transferred to another clean beaker, and co-heated with 200 mL of MeOH; and the resulting crystal was stored under seal. The 0.1 M DNPH solution was prepared by dissolving 5.0548 g of the purified DNPH in 250 mL of ACN containing 5 mL of 10% phosphoric acid solution.
Derivatization of ACR with DNPH was conducted in accordance with Reilly et al. ([36]). In short, one milliliter of each sample was incubated with 1 mL of diluted DNPH solution (0.01 M) for 40 min at 40°C, followed by extraction with 10 mL of MeOH/water (75: 25, v/v). After centrifugation (6,000 rpm, 10 min), the supernatant was collected and was further extracted with 10 mL of dichloromethane to obtain the DNPH derivatives. Prior to HPLC analysis as above, the DNPH derivatives were re-dissolved in 1 mL of HPLC grade ACN and passed through a 0.45 μm filter (Bie & Berntsen, Rødovre, Denmark).

Where only a bound is given, the exact number is not on record here.

As usually defined, the IC50 is the midpoint of a concentration-inhibition curve. Regarding `C=CC=O` [ACR, Acrolein], the apoptotic rate in series [1] (GES-1, 20 μM) stood at 16.28%; in series [1] (GES-1, 60 μM), 68.10%. Further, the apoptotic cells in series [2] (Caco-2, 20 μM) turned out to be 12.19%; in series [2] (Caco-2, 40 μM) it was 28.59%; in series [2] (Caco-2, 60 μM), 59.50%. The “number of viable cells” value came out at 87.5% in series [2] (Caco-2, 20 μM); 71.3% in series [2] (Caco-2, 40 μM); 40.0% in series [2] (Caco-2, 60 μM). In series [2] (Caco-2, 60 μM), the “apoptotic rate, times higher than that of the same concentration of RAC” value came out at 5.5 times. The “ratio of red/green fluorescence intensity” value is listed as 5.68 in series [3] (GES-1, 20 μM); 5.68 ± 0.24 in series [3] (GES-1, 20 μM, listed as Acrolein); 4.29 ± 0.17 in series [3] (GES-1, 40 μM); 2.13 in series [3] (GES-1, 60 μM); 2.13 ± 0.10 in series [3] (GES-1, 60 μM, listed as Acrolein); 5.32 in series [4] (Caco-2, 20 μM). Besides, the “ratio of red/green fluorescence intensity” value in series [4] (Caco-2, 20 μM, listed as Acrolein) is listed as 5.32 ± 0.17; in series [4] (Caco-2, 40 μM) it was 2.88 ± 0.09; in series [4] (Caco-2, 60 μM) it was 1.97; in series [4] (Caco-2, 60 μM, listed as Acrolein), 1.97 ± 0.06. Moreover, the “cell viability (viable cell number)” value was determined as 49.57% in series [5] (GES-1, 20 μM); 11.22% in series [5] (GES-1, 140 μM); 31.83% in series [6] (Caco-2, 20 μM); 6.97% in series [6] (Caco-2, 140 μM). The IC50 was less than 20 µM in series [5] (GES-1, CCK-8, read-out: IC50 (cytotoxicity)) and less than 20 µM in series [6] (Caco-2, CCK-8, read-out: IC50 (cytotoxicity)). Moreover, in series [5] (GES-1, up to 140 μM, 24 h as printed), the “decrease of viable cell number” value came out at 88.78%.
As for `C[C@@H]1O[C@@H](OC[C@H]2O[C@@H](Oc3c(-c4ccc(O)c(O)c4)oc4cc(O)cc(O)c4c3=O)[C@H](O)[C@@H](O)[C@@H]2O)[C@H](O)[C@H](O)[C@H]1O` [rutin, quercetin 3-O-rhamnosylglucoside], the “amount of ACR reduced compared with the initial content” value in series [7] (40°C, rutin/ACR 1/1) came to 43.36%; in series [7] (60°C, rutin/ACR 1/1) it was 82.05%; in series [7] (80°C, rutin/ACR 1/1) it was 92.56%; in series [7] (90°C, rutin/ACR 1/1), 96.09%; in series [7] (100°C, rutin/ACR 1/1) it was 98.20%. In addition, the “content of ACR (residual)” value in series [7] (40°C) was found to be 113.28 µmol; in series [7] (60°C) it was 35.9 µmol; in series [7] (80°C) it was 14.88 µmol; in series [7] (90°C) it was 7.83 µmol; in series [7] (100°C) it was 3.60 µmol. Further, in series [7] (after 8 h of reaction, 80°C, rutin/ACR 1/1), the ACR removed entry is listed as “more than 94%”. The “content of residual ACR” value worked out at 18.54 µmol in series [7] (molar ratio rutin/ACR 1/2, 80°C) and 6.69 µmol in series [7] (molar ratio rutin/ACR 4/1, 80°C).
